Data on 17 compounds can be found in patent US11285156B2, “Substituted piperazines as KRAS G12C inhibitors” (Amgen Inc., priority 2018, dated 2022).

As usually defined, the IC50 is the midpoint of a concentration-inhibition curve.

For the first assay, the target named is GDP-bound KRAS protein (aa 1-169), containing both G12C and C118A amino acid substitutions (Homo sapiens (Human), UniProt P01116, C118A/G12C). Description: Coupled nucleotide exchange assay (SOS-mediated nucleotide exchange, AlphaScreen). The class given is biochemical. Particulars: 5 min compound pre-incubation. For orientation: Alpha assays give light when donor and acceptor beads are brought close together.
Sequence of GDP-bound KRAS protein (aa 1-169), containing both G12C and C118A amino acid substitutions (P01116 other isoform, or with tags, fused parts or gaps G12C/C118A): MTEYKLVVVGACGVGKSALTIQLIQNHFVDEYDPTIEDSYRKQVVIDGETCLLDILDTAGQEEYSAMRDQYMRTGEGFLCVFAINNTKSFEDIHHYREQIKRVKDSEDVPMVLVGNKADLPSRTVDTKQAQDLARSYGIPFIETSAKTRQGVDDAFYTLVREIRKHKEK
Regarding `C=CC(=O)N1C[C@H](C)N(c2nc(=O)n(-c3c(C(C)C)cc(N4CCC4)nc3C(C)C)c3nc(-c4ccccc4F)c(Cl)cc23)C[C@H]1C` (single isomer, unassigned) [Example 182-2], the “Coupled exchange IC50 (5 min; μM)” value was found to be 0.187 µM. Still for that read-out and setting: next, `C=CC(=O)N1C[C@H](C)N(c2nc(=O)n(-c3c(C)ccnc3C(C)C)c3nc(N4CCCCC4C)c(Cl)cc23)C[C@H]1C` (mixture of isomers) [Example 69-12, (M)-6-Chloro-4-[(2S,5R)-2,5-dimethyl-4-prop-2-enoyl-piperazin-1-yl]-1-(2-isopropyl-4-methyl-3-pyridyl)-7-[(2SR)-2-methyl-1-piperidyl]pyrido[2,3-d]pyrimidin-2-one]: 2.88 µM. Take `[2H]C1([2H])N(C(=O)C=C)C([2H])([2H])C([2H])([2H])N(c2nc(=O)n(-c3c(C)ccnc3C(C)C)c3nc(-c4c(O)cccc4F)c(F)cc23)C1([2H])[2H]` (atropisomer, axis not shown; (M)) [Example 72-22, (M)-6-Fluoro-7-(2-fluoro-6-hydroxy-phenyl)-1-(2-isopropyl-4-methyl-3-pyridyl)-4-(2,2,3,3,5,5,6,6-octadeuterio-4-prop-2-enoyl-piperazin-1-yl)pyrido[2,3-d]pyrimidin-2-one]: the “Coupled exchange IC50 (5 min; μM)” value was found to be 0.408 µM. As to `C=CC(=O)N1C[C@H](C)N(c2nc(=O)n(-c3c(C)nc(Cl)nc3C(C)C)c3nc(-c4ccccc4F)c(Cl)cc23)C[C@H]1C` (single isomer, unassigned) [Example 191-1], the “Coupled exchange IC50 (5 min; μM)” value was determined as 2.99 µM.

The same assay, now with this note: read-out: Coupled exchange IC50 (5 min; μM); 5 min compound pre-incubation.
As for `C=CC(=O)N1C[C@H](C)N(c2nc(=O)n(-c3ccccc3P(C)(C)=O)c3nc(-c4ccccc4F)c(Cl)cc23)C[C@H]1C` [Example 55-55, 6-Chloro-1-(2-dimethylphosphorylphenyl)-4-[(2S,5R)-2,5-dimethyl-4-prop-2-enoyl-piperazin-1-yl]-7-(2-fluorophenyl)pyrido[2,3-d]pyrimidin-2-one], the IC50 came to 3.14 µM. With `C=CC(=O)N1C[C@H](C)N(c2nc(=O)n(-c3c(C)ccnc3C(C)C)c3nc(-c4cc(OC)ccc4Cl)c(F)cc23)C[C@H]1C` (atropisomer, axis not shown; (M)) [Example 94-6, (M)-7-(2-chloro-5-methoxy-phenyl)-4-[(2S,5R)-2,5-dimethyl-4-prop-2-enoyl-piperazin-1-yl]-6-fluoro-1-(2-isopropyl-4-methyl-3-pyridyl)pyrido [2,3-d]pyrimidin-2-one], the IC50 came to 0.468 µM.

As for `C=CC(=O)N1C[C@H](C)N(c2nc(=O)n(-c3c(C)ccnc3C(C)C)c3nc(C4CC4)c(Cl)cc23)C[C@H]1C` (atropisomer, axis not shown; (M)) [Example 95-4, (M)-6-chloro-7-cyclopropyl-4-[(2S,5R)-2,5-dimethyl-4-prop-2-enoyl-piperazin-1-yl]-1-(2-isopropyl-4-methyl-3-pyridyl)pyrido [2,3-d]pyrimidin-2-one], the IC50 came out at 0.571 µM. `C=CC(=O)N1CCN(c2nc(=O)n(-c3c(C)ccnc3C(C)C)c3nc(-c4c(O)cccc4F)c(F)cc23)C(C)C1C` (single isomer, unassigned) [Example 124-14-1, 4-[cis-2,3-dimethyl-4-prop-2-enoyl-piperazin-1-yl]-6-fluoro-7-(2-fluoro-6-hydroxy-phenyl)-1-(2-isopropyl-4-methyl-3-pyridyl)pyrido[2,3-d]pyrimidin-2-one]: the IC50 amounted to 22.2 µM. Same read-out and setting: for `C=CC(=O)N1C[C@H](C)N(c2nc(=O)n(-c3c(C)ccnc3C(C)C)c3nc(C4=CCOCC4)c(Cl)cc23)C[C@H]1C` (atropisomer, axis not shown; (M)) [Example 92-9, (M)-6-Chloro-7-(3,6-dihydro-2H-pyran-4-yl)-4-[(2S,5R)-2,5-dimethyl-4-prop-2-enoyl-piperazin-1-yl]-1-(2-isopropyl-4-methyl-3-pyridyl)pyrido [2,3-d]pyrimidin-2-one] the value was 8.53 µM. `C=CC(=O)N1C[C@H](C)N(c2nc(=O)n(-c3c(C)ccnc3C(C)C)c3nc(N4CCCCC4)c(Cl)cc23)C[C@H]1C` (atropisomer, axis not shown; (M)) [Example 69-11, (M)-6-Chloro-4-[(2S,5R)-2,5-dimethyl-4-prop-2-enoyl-piperazin-1-yl]-1-(2-isopropyl-4-methyl-3-pyridyl)-7-(1-piperidyl)pyrido[2,3-d]pyrimidin-2-one]: the IC50 was found to be 1.14 µM. The same measure, in the same setting: next, `C=CC(=O)N1C[C@H](C)N(c2nc(=O)n(-c3c(CN(C)C)cccc3C(C)C)c3nc(-c4ccccc4F)c(Cl)cc23)C[C@H]1C` (single isomer, unassigned) [Example 80-14-1]: 1.26 µM.

Turning to `C=CC(=O)N1C[C@H](C)N(c2nc(=O)n(-c3c(C)ccnc3C(C)C)c3nc(-c4nc(C)sc4C)c(Cl)cc23)C[C@H]1C` (atropisomer, axis not shown; (M)) [Example 92-71, (M)-6-Chloro-4-[(2S,5R)-2,5-dimethyl-4-prop-2-enoyl-piperazin-1-yl]-7-(2,5-dimethylthiazol-4-yl)-1-(2-isopropyl-4-methyl-3-pyridyl)pyrido [2,3-d]pyrimidin-2-one], the IC50 was determined as 1.36 µM. Same read-out and setting: next, `C=CC(=O)N1C[C@H](C)N(c2nc(=O)n(-c3c(C(C)C)ccnc3C(=O)N(C)C)c3nc(-c4ccccc4F)c(Cl)cc23)C[C@H]1C` [Example 102-8, 3-[6-Chloro-4-[(2S,5R)-2,5-dimethyl-4-prop-2-enoyl-piperazin-1-yl]-7-(2-fluorophenyl)-2-oxo-pyrido[2,3-d]pyrimidin-1-yl]-4-isopropyl-N,N-dimethyl-pyridine-2-carboxamide]: 184 µM; `C=CC(=O)N1CCN(c2nc(=O)n(-c3c(C)ccnc3C(C)C)c3nc(-c4c(O)cccc4F)c(F)cc23)C(C)C1C` (single isomer, unassigned) [Example 124-16-1, 4-[trans-2,3-dimethyl-4-prop-2-enoyl-piperazin-1-yl]-6-fluoro-7-(2-fluoro-6-hydroxy-phenyl)-1-(2-isopropyl-4-methyl-3-pyridyl)pyrido[2,3-d]pyrimidin-2-one]: 1.12 µM; `C=CC(=O)N1C[C@H](C)N(c2nc(=O)n(-c3c(C)cc(CN(C)C)cc3C(C)C)c3nc(-c4c(N)cccc4F)c(F)cc23)C[C@H]1C` [Example 184, 4-((2S,5R)-4-Acryloyl-2,5-dimethylpiperazin-1-yl)-7-(2-amino-6-fluorophenyl)-1-(4-((dimethylamino)methyl)-2-isopropyl-6-methylphenyl)-6-fluoropyrido[2,3-d]pyrimidin-2(1H)-one]: 2.81 µM.

As to `C=CC(=O)N1[C@H](C)CN(c2nc(=O)n(-c3c(C)ccnc3C(C)C)c3nc(-c4ccccc4F)c(Cl)nc23)C[C@@H]1C` (single isomer, unassigned) [Example 224-1], the 50% inhibitory concentration (IC50) was 23.3 µM.

In the case of `C=CC(=O)N1C[C@H](C)N(c2nc(=O)n(-c3c(C(C)C)ncnc3C(C)C)c3nc(-c4ccccc4C#N)c(Cl)cc23)C[C@H]1C` [Example 100-3, 2-[6-Chloro-1-(4,6-diisopropylpyrimidin-5-yl)-4-[(2S,5R)-2,5-dimethyl-4-prop-2-enoyl-piperazin-1-yl]-2-oxo-pyrido[2,3-d]pyrimidin-7-yl]benzonitrile], the IC50 was 0.763 µM.
